Data: article PMC12466451 (Antibiotics, 2025)

Experiment: Surfactin C metabolism study: metabolic stability in liver microsomes with NADPH
Assay type: in vitro ADME, chicken
Conditions: for percentage of initial concentration remaining after incubation with microsomes: chicken liver microsomes 0.5 mg/mL, NADPH, 1.0 µM, 37 °C, 120 min; for t1/2 / k (elimination rate constant): chicken liver microsomes; for t1/2: t1/2 = ln(2)/k; for k (elimination rate constant): slope of ln-concentration versus time plot, 0-120 min
Procedure: After determining the presence of surfactin C analogues in F1, BPR-17 and BPR-16, an in vitro metabolism assay was conducted to investigate the bioavailability and stability of these compounds. This study involved incubating the bioactive metabolites with liver microsomes obtained from chickens to predict and evaluate their potential efficacy and bioavailability once digested. The microsomal assay was performed by first harvesting the chicken microsomes from the liver. Once obtained, these were incubated with the surfactin C compounds in the presence of NADPH, which serves as an essential cofactor for cytochrome P450 enzymes. The degradation of surfactin C analogues over time was monitored by measuring their peak areas using LC-MS/MS [29]. Additionally, a positive control compound (verapamil) was used to confirm the metabolic activity of the liver microsomes.
Preparation of microsomes from liver tissue was performed according to the protocols developed by Knights et al. 2016 [45]. Livers from chickens approximately 42 days old were obtained from Golden Cockerel poultry processors (Mount Cotton, QLD, Australia). Immediately after harvesting, the livers were washed in 1.15% KCl in lab grade H2O to remove excess blood and transported to the laboratory on ice for processing. To prepare the microsomes, 10 g of liver tissue was homogenized in buffer (10 mM potassium phosphate, pH 7.4) using an Ultraturrax-style homogeniser with three 30-s bursts, cooling the sample on ice between each burst. The homogenate was then centrifuged at 7000× g for 10 min at 4 °C. The crude pellet was discarded, and the supernatant was further separated by ultracentrifugation at 105,000× g for 60 min at 4 °C. The supernatant was decanted, and the pellet was rinsed with 1 mL of microsome buffer. The rinsing and ultracentrifugation process was repeated twice, and the resulting pellet was resuspended in microsome storage buffer and stored at −80 °C until further use. A Bradford assay was used to determine the concentration of the protein in the sample [46].
The test compounds C13-C1_6 surfactin C (10.0 mM) were prepared in DMSO, and the metabolic stability of test compounds was determined in triplicate in an oscillating water bath (Grant) at 37 °C and 150 RPM [25]. Positive control (verapamil; 0.001 mM) and negative control (without NADPH regeneration system) incubations were conducted concurrently. Tubes containing potassium phosphate buffer (100 mM) at pH 7.4, microsomal protein stock solution (0.5 mg/mL), test compound solution (1.0 µM) and glucose-6-phosphate dehydrogenase (1 IU/mL) were preincubated at 37 °C for 5 min prior to the reaction being initiated by the addition of 25 µL of a 20× stock of an NADPH regeneration system (NRS) containing NADP (1.3 mM). The total incubation volume was 0.5 mL. The mixture was then incubated at 37 °C in an oscillating water bath (Grant) at 150 RPM for 0, 10, 20, 30, 60, and 120 min. At each time point, reactions were terminated by the addition of 150 µL of ice-cold acetonitrile containing cyclosporin A (60 ng/mL) as an internal standard for test compounds or clotrimazole (50 ng/mL) for verapamil. The test tubes were centrifuged at 13,000× g for 5 min, and ~100 µL of supernatant was transferred to polypropylene 96-well plates for LC-MS/MS analysis using a Waters ALLIANCE HPLC system coupled to a Waters Quattro Micro triple quadrupole mass spectrometer (Milford, MA, USA). Chromatographic separation was achieved using a Phenomenex HPLC C18 column (4.6 × 50 mm, 3 µm). Mass spectrometric detection was performed in negative ion multiple reaction monitoring mode with argon as the collision gas. Data acquisition and processing were carried out using MassLynx software (version 4.1, Waters). The half-life (t1/2) of each test compound was calculated using the equation t1/2 = ln(2)/k, where k is the elimination rate constant derived from the slope obtained from the ln-concentration versus time plot.

Substance	percentage of initial concentration remaining after incubation with microsomes	t1/2 [h]	k (elimination rate constant)
C13 surfactin C	approximately 84%	19.25	
C14 surfactin C	~95%		
C15 surfactin C	~99%	14.438	0.0008
C16 surfactin C	~92%	16.5	0.0007
